Values after ≈ are worked out from the molar mass of the structure shown.
Tests used:
A. baumannii [1] = test: Minimum inhibition concentration, serial dilution; format: cell-based, Acinetobacter baumannii; conditions: 37 °C; for MIC: Acinetobacter baumannii
Protocol: (§1) For each strain, three to five isolated colonies were selected from the fresh agar plate and transferred into a tube containing 3-4 ml of the sterile broth medium. The bacterial suspension was mixed well and incubated at 35-37 °C for 2-6 hours. […] After that, 1 mg of the tested compound (antimicrobial agent) was dissolved in 1 ml of DMSO and a two-fold serial dilution was done using a broth medium. A fixed volume of the prepared bacterial inoculum was added to each tube and incubated at 37 °C for 16-20 hours. The MIC is defined as the lowest concentration of the antimicrobial agent that inhibits visible growth of the tested isolate as observed with the unaided eye.

P. aeruginosa [2] = test: Minimum inhibition concentration, serial dilution; format: cell-based, Pseudomonas aeruginosa; conditions: 37 °C; for MIC: Pseudomonas aeruginosa
Protocol: as §1

P. aeruginosa [3] = test: Agar diffusion method, inhibition zone diameter; format: cell-based, Pseudomonas aeruginosa; conditions: Gram-negative
Source text: (§2) The bacterial growth inhibition activity of most of the newly synthesized compounds was examined against different Gram-positive and Gram-negative strains. The Agar diffusion method was used to assess the antibacterial and antifungal activity. The Gram-negative strains were: E. coli, K. pneumonia, P. aeruginosa and A. baumannii, the Gram-positive strains were: St. aureus, St. mutans and the standard antibiotics were gentamicin, tigecycline and ampicillin.
(§3) The agar-based media plate surface was inoculated by spreading a volume of the microbial inoculum over the entire agar surface.
(§4) Using a sterile cork borer or a tip, a hole with a diameter of 6 to 8 mm was made.
(§5) Using a micropipette, (20 µL) volume of the antimicrobial agent or extract solution at the desired concentration was introduced into the well.
(§6) The inoculated plates were incubated under suitable conditions depending upon the tested microorganism. The antimicrobial agent diffused through the agar medium and inhibited the growth of the microbial strain tested.
(§7) After a suitable incubation period (16 to 48 hours) according to the optimum growth conditions, the resulting inhibition zone diameters (in mm) around the wells were measured to the nearest whole millimeter at the point at which there is a prominent reduction in growth. If growth is insufficient at the recommended times, the plates should be re-incubated and read later.

E. coli [4] = test: Minimum inhibition concentration, serial dilution; format: cell-based, Escherichia coli; conditions: 37 °C; for MIC: Escherichia coli
Protocol: as §1

E. coli [5] = test: Agar diffusion method, inhibition zone diameter; format: cell-based, Escherichia coli; conditions: Gram-negative
Source text: as §2, §3, §4, §5, §6, §7

A. baumannii [6] = test: Agar diffusion method, inhibition zone diameter; format: cell-based, Acinetobacter baumannii; conditions: Gram-negative
Source text: as §2, §3, §4, §5, §6, §7

K. pneumonia [7] = test: Minimum inhibition concentration, serial dilution; format: cell-based, Klebsiella pneumonia; conditions: 37 °C; for MIC: Klebsiella pneumoniae
Protocol: as §1

K. pneumonia [8] = test: Agar diffusion method, inhibition zone diameter; format: cell-based, Klebsiella pneumonia; conditions: Gram-negative
Source text: as §2, §3, §4, §5, §6, §7

St. aureus [9] = test: Agar diffusion method, inhibition zone diameter; format: cell-based, Staphylococcus aureus; conditions: Gram-positive
Source text: as §2, §3, §4, §5, §6, §7

St. mutans = test: Agar diffusion method, inhibition zone diameter; format: cell-based; conditions: Gram-positive
Source text: as §2, §3, §4, §5, §6, §7

St. aureus [10] = test: Minimum inhibition concentration, serial dilution; format: cell-based; conditions: Staphylococcus aureus, 37 °C
Protocol: as §1

[11] = target: dihydrofolate reductase in Escherichia coli (Escherichia coli, UniProt P0ABQ4); test: In vitro DHFR inhibition assessment; format: biochemical
dihydrofolate reductase in Escherichia coli, sequence (P0ABQ4 whole entry): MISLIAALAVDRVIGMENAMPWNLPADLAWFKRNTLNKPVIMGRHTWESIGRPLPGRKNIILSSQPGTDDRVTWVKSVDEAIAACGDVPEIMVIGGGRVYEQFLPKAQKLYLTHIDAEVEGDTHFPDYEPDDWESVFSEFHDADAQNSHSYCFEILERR

| Compound | IZD P. aeruginosa (P. aeruginosa [3]) | IZD E. coli (E. coli [5]) | IZD A. baumannii (A. baumannii [6]) | IZD K. pneumonia (K. pneumonia [8]) | IZD St. aureus (St. aureus [9]) | MIC (E. coli [4]) | MIC (K. pneumonia [7]) | other results |
| --- | --- | --- | --- | --- | --- | --- | --- | --- |
| 4-(2-(Benzo[d]thiazol-2-yl)acetamido)benzoic acid [2e] | 36 ± 1 mm | 35 ± 1 mm | 36 ± 1 mm | 36 ± 1 mm | 20 ± 1 mm | – | – | MIC A. baumannii (A. baumannii [1]): 0.125 µg/mL; MIC P. aeruginosa (P. aeruginosa [2]): 0.03125 µg/mL; MIC E. coli (E. coli [4]): 0.03125 µg/mL; MIC K. pneumonia (K. pneumonia [7]): 0.03125 µg/mL |
| O=C(Nc1ccccc1)C(=Cc1ccccc1)c1nc2ccccc2s1 [4a, 2-(Benzo[d]thiazol-2-yl)-N,3-diphenylacrylamide] | – | 11 ± 1 mm | – | – | – | – | – | – |
| COc1ccc(C=C(C(=O)Nc2ccccc2)c2nc3ccccc3s2)cc1 [4b, 2-(Benzo[d]thiazol-2-yl)-3-(4-methoxyphenyl)-N-phenylacrylamide] | – | – | 13 ± 1 mm | – | – | – | – | – |
| O=C(Nc1ccccc1)C(=Cc1ccc(Cl)cc1)c1nc2ccccc2s1 [4d, 2-(Benzo[d]thiazol-2-yl)-3-(4-chlorophenyl)-N-phenylacrylamide] | no activity | 20 ± 1 mm | 15 ± 1 mm | 20 ± 1 mm | – | 0.125 µg/mL (≈ 0.32 µM) | 0.125 µg/mL (≈ 0.32 µM) | MIC (A. baumannii [1]): 0.25 µg/mL (≈ 0.64 µM) |
| COc1ccc(C=C(C(=O)Nc2ccc(C)cc2)c2nc3ccccc3s2)cc1 [4f, 2-(Benzo[d]thiazol-2-yl)-3-(4-methoxyphenyl)-N-(p-tolyl)acrylamide] | 20 ± 1 mm | 25 ± 1.1 mm | 15 ± 1.1 mm | 25 ± 1.1 mm | 25 ± 1.1 mm | 0.0625 µg/mL (≈ 0.156 µM) | 0.0312 µg/mL (≈ 0.078 µM) | MIC (P. aeruginosa [2]): 0.125 µg/mL (≈ 0.312 µM); IZD St. mutans (St. mutans): 18 ± 1.1 mm; MIC K. pneumonia (K. pneumonia [7]): 0.0625 µg/mL (≈ 0.156 µM) |
| COc1ccc(C=C(C(=O)Nc2ccc(C)cc2)c2nc3ccccc3s2)cc1OC [4g, 2-(Benzo[d]thiazol-2-yl)-3-(3,4-dimethoxyphenyl)-N-(p-tolyl)acrylamide] | – | 18 ± 1 mm | – | – | – | – | – | – |
| O=C(Nc1ccc(Cl)cc1)C(=Cc1ccccc1)c1nc2ccccc2s1 [4i, 2-(Benzo[d]thiazol-2-yl)-N-(4-chlorophenyl)-3-phenylacrylamide] | no activity | 20 ± 1 mm | 15 ± 1 mm | 23 ± 1 mm | 12 ± 1 mm | 0.125 µg/mL (≈ 0.32 µM) | 0.125 µg/mL (≈ 0.32 µM) | – |
| COc1ccc(C=C(C(=O)Nc2ccc(Cl)cc2)c2nc3ccccc3s2)cc1OC [4k, 2-(Benzo[d]thiazol-2-yl)-N-(4-chlorophenyl)-3-(3,4-dimethoxyphenyl)acrylamide] | 20 ± 1 mm | 22 ± 1.1 mm | 23 ± 1.1 mm | 25 ± 1.1 mm | 25 ± 1.1 mm | 0.125 µg/mL (≈ 0.277 µM) | 0.0625 µg/mL (≈ 0.139 µM) | MIC (St. aureus [10]): 0.0625 µg/mL (≈ 0.139 µM); MIC (A. baumannii [1]): 0.0312 µg/mL (≈ 0.0693 µM); MIC (P. aeruginosa [2]): 0.125 µg/mL (≈ 0.277 µM); IZD St. mutans (St. mutans): 18 ± 1.1 mm |
| O=C(Nc1ccc(Cl)cc1)C(=Cc1ccc(OC(=O)c2ccccc2)cc1)c1nc2ccccc2s1 [4o, 4-(2-(Benzo[d]thiazol-2-yl)-3-((4-chlorophenyl)amino)-3-oxoprop-1-en-1-yl)phenyl-benzoate] | – | – | 10 ± 1 mm | 13 ± 1 mm | – | – | – | – |
| O=C(Nc1ccccc1)C(=Cc1cn(-c2ccccc2)nc1-c1ccccc1)c1nc2ccccc2s1 [6a, 2-(Benzo[d]thiazol-2-yl)-3-(1,3-diphenyl-1H-pyrazol-4-yl)-N-phenylacrylamide] | 23 ± 1 mm | 20 ± 1 mm | – | 20 ± 1 mm | – | 0.0625 µg/mL (≈ 0.125 µM) | 0.0625 µg/mL (≈ 0.125 µM) | MIC (P. aeruginosa [2]): 0.125 µg/mL (≈ 0.251 µM) |
| Cc1ccc(-c2nn(-c3ccccc3)cc2C=C(C(=O)Nc2ccccc2)c2nc3ccccc3s2)cc1 [6b, 2-(Benzo[d]thiazol-2-yl)-N-phenyl-3-(1-phenyl-3-(p-tolyl)-1H-pyrazol-4-yl)acrylamide] | – | – | 10 ± 1 mm | 13 ± 1 mm | – | – | – | – |
| O=C(Nc1ccccc1)C(=Cc1cn(-c2ccccc2)nc1-c1ccc(Cl)cc1)c1nc2ccccc2s1 [6c, 2-(Benzo[d]thiazol-2-yl)-3-(3-(4-chlorophenyl)-1-phenyl-1H-pyrazol-4-yl)-N-phenyl-acrylamide] | – | – | 13 ± 1 mm | – | – | – | – | – |
| Cc1ccc(NC(=O)C(=Cc2cn(-c3ccccc3)nc2-c2ccccc2)c2nc3ccccc3s2)cc1 [6d, 2-(Benzo[d]thiazol-2-yl)-3-(1,3-diphenyl-1H-pyrazol-4-yl)-N-(p-tolyl)acrylamide] | – | – | 10 ± 1 mm | 13 ± 1 mm | – | – | – | – |
| Cc1ccc(NC(=O)C(=Cc2cn(-c3ccccc3)nc2-c2ccc(C)cc2)c2nc3ccccc3s2)cc1 [6e, 2-(Benzo[d]thiazol-2-yl)-3-(1-phenyl-3-(p-tolyl)-1H-pyrazol-4-yl)-N-(p-tolyl)acrylamide] | – | 31 ± 1 mm | – | 36 ± 0.8 mm | 29 ± 0.5 mm | – | – | – |
| Cc1ccc(-c2nn(-c3ccccc3)cc2C=C(C(=O)Nc2ccc(Cl)cc2)c2nc3ccccc3s2)cc1 [6h, 2-(Benzo[d]thiazol-2-yl)-N-(4-chlorophenyl)-3-(1-phenyl-3-(p-tolyl)-1H-pyrazol-4-yl)acrylamide] | – | – | 13 ± 1 mm | – | – | – | – | – |
| O=C(Nc1ccc(Cl)cc1)/C(=C\c1cn(-c2ccccc2)nc1-c1ccc(Cl)cc1)c1nc2ccccc2s1 [6i] | – | 18 ± 0.5 mm | 19 ± 0.5 mm | – | 14 ± 1 mm | – | – | IZD St. mutans (St. mutans): 15 ± 1 mm |
| N#Cc1c(-c2ccccc2)c(-c2nc3ccccc3s2)c(=O)n(-c2ccccc2)c1N [11a, 2-Amino-5-(benzo[d]thiazol-2-yl)-6-oxo-1,4-diphenyl-1,6-dihydropyridine-3-carbonitrile] | – | 18 ± 0.5 mm | 19 ± 0.5 mm | – | 14 ± 1 mm | – | – | IZD St. mutans (St. mutans): 15 ± 1 mm |
| COc1ccc(-c2c(C#N)c(N)n(-c3ccccc3)c(=O)c2-c2nc3ccccc3s2)cc1 [11b, 2-Amino-5-(benzo[d]thiazol-2-yl)-4-(4-methoxyphenyl)-6-oxo-1-phenyl-1,6-dihydro-pyridine-3-carbonitrile] | – | 19 ± 1 mm | 15 ± 1 mm | – | – | – | – | – |
| Cc1ccc(-n2c(N)c(C#N)c(-c3ccccc3)c(-c3nc4ccccc4s3)c2=O)cc1 [11c, 2-Amino-5-(benzo[d]thiazol-2-yl)-6-oxo-4-phenyl-1-(p-tolyl)-1,6-dihydropyridine-3-carbonitrile] | 35 ± 1 mm | 35 ± 1 mm | 35 ± 1 mm | 36 ± 1 mm | – | 0.0315 µg/mL (≈ 0.0725 µM) | 0.0315 µg/mL (≈ 0.0725 µM) | MIC (A. baumannii [1]): 0.0315 µg/mL (≈ 0.0725 µM); MIC (P. aeruginosa [2]): 0.0315 µg/mL (≈ 0.0725 µM); IC50 [11]: 15 ± 0.785 µM; inhibitory activity against DHFR relative to trimethoprim ([11]; fold of trimethoprim, in words): half |
| COc1ccc(-c2c(C#N)c(N)n(-c3ccc(C)cc3)c(=O)c2-c2nc3ccccc3s2)cc1 [11d, 2-Amino-5-(benzo[d]thiazol-2-yl)-4-(4-methoxyphenyl)-6-oxo-1-(p-tolyl)-1,6-dihydro-pyridine-3-carbonitrile] | 13 ± 1 mm | 35 ± 1 mm | 10 ± 1 mm | 23 ± 1 mm | – | 0.0315 µg/mL (≈ 0.0678 µM) | 0.0625 µg/mL (≈ 0.135 µM) | – |
| COc1ccc(-c2c(C#N)c(N)n(-c3ccc(Cl)cc3)c(=O)c2-c2nc3ccccc3s2)cc1 [11f, 2-Amino-5-(benzo[d]thiazol-2-yl)-1-(4-chlorophenyl)-4-(4-methoxyphenyl)-6-oxo-1,6-dihydropyridine-3-carbonitrile] | 16 ± 1 mm | 17 ± 1.1 mm | 15 ± 1.1 mm | 20 ± 1.1 mm | 20 ± 1.1 mm | – | – | IZD St. mutans (St. mutans): 20 ± 1.1 mm |
| CNC(C)C1CCC(N)C(OC2C(N)CC(N)C(OC3OCC(C)(O)C(NC)C3O)C2O)O1 (stereo not drawn) [Gentamicin, reference compound] | 32 ± 0.4 mm | 27 ± 0.1 mm | – | 29 ± 0.5 mm | – | 0.0312 µg/mL (≈ 0.0654 µM) | 0.0625 µg/mL (≈ 0.131 µM) | MIC (A. baumannii [1]): 0.0312 µg/mL (≈ 0.0654 µM); MIC (P. aeruginosa [2]): 0.0312 µg/mL (≈ 0.0654 µM) |
| CN(C)c1cc(NC(=O)CNC(C)(C)C)c(O)c2c1C[C@H]1C[C@H]3[C@H](N(C)C)C(O)=C(C(N)=O)C(=O)[C@@]3(O)C(O)=C1C2=O [Tigecycline, reference compound] | – | – | 23 ± 0.4 mm | – | – | – | – | MIC (A. baumannii [1]): 0.0312 µg/mL (≈ 0.0534 µM) |

From paper PMC11784096, “Synthesis, antibacterial evaluation and in silico studies of novel 2-(benzo[d]thiazol-2-yl)-N-arylacetamides and their derivatives as potential DHFR inhibitors” (BMC Chemistry, 2025)
